# Measured values as given in patent US20040200144A1, “Plant growth regulator and a method of producing the regulator” (Dainichiseika Color & Chemicals Mfg. Co., Ltd., priority 2003, published 2004).
# What was measured:
# Type in all cases: in vivo
# onion young plants = assay: Dwarfing test of onion young plant; conditions: for Plant Height / Dwarfing Rate: 5 ml per cell on 5th day, measured 27th day; for Dwarfing Rate: vs comparative group
# Experimental: (§1) 50 g of sodium tripolyphosphate was dissolved in 400 ml of distilled water at 80° C., 17.5 g of cinnamic acid was added to the sodium tripolyphosphate solution and dissolved by stirring, the resultant solution was diluted with distilled water until the total volume of solution was 500 ml, and thus 3.5% cinnamic acid aqueous solution (pH 6.5) was prepared. The aqueous solution was further diluted with distilled water 70 times or 17.5 times, and 0.05% cinnamic acid aqueous solution and 0.2% cinnamic acid aqueous solution were prepared, respectively.
# (§2) Nursery soil for house use was filled into paper joint pots (each with 24 cells: 34×43×50 mm/cell), water was sufficiently given to the soil, and seeds of carrots were sowed. After seeding, the pot was placed in the same greenhouse as described above to sprout. Subsequently, on the 5th day, the cinnamic aqueous acid solutions were added to the nursery soil in the joint pots. One of the joint pots (24 cells) was prepared as a 0.05% cinnamic acid aqueous solution addition group, and 5 ml of the 0.05% cinnamic acid aqueous solution was added to the nursery soil of each cell. Another one of the join pots was prepared as a 0.2% cinnamic acid aqueous solution addition group, and 5 ml of the 0.2% cinnamic acid aqueous solution was added to the nursery soil of each cell. The other one of the joint pots was prepared as a comparative group in which 5 ml of water is added to each cell, instead of the cinnamic acid aqueous solution. Subsequently, the cultivation of carrot young plants in each group was continued under general conditions. On the 27th day, the heights of young plants in each group were measured, the dwarfing rate (%) was calculated, and the dwarfing effect of cinnamic acid aqueous solution on carrot young plants was examined. […].
# In the same way as in Example 5 except that seeds of onion were sowed, the dwarfing effect of cinnamic acid aqueous solution on onion young plants was examined. […]
# [1] = system: qing-geng-cai young plants; assay: Dwarfing test of qing-geng-cai young plant; conditions: for Plant Height / Dwarfing Rate: 5 ml per cell on 5th day, measured 20th day; for Dwarfing Rate: vs comparative group
# Experimental: as §1, §2
# In the same way as in Example 5 except that seeds of […] were sowed, and that plant heights were measured on the 20th day, the dwarfing effect of cinnamic acid aqueous solution on qing-geng-cai young plants was examined. […]
# field peas young plants = assay: Dwarfing test of field peas young plant; conditions: for Plant Height / Dwarfing Rate: measured 24th day; for Dwarfing Rate: vs comparative group
# Experimental: 18.4 g of potassium hydroxide was dissolved in 400 ml of distilled water at 20° C., 50 g of cinnamic acid was added to the potassium hydroxide solution and dissolved by stirring, the resultant solution was diluted with distilled water until the total volume of solution was 500 ml, and thus 10% cinnamic acid aqueous solution (pH 8.8) was prepared. The aqueous solution was further diluted with distilled water 100 times or 33.3 times, and 0.1% cinnamic acid aqueous solution and 0.3% cinnamic acid aqueous solution were prepared, respectively.
# as §2
# In the same way as in Example 5 except that seeds of field peas were sowed, 0.1% and 0.3% cinnamic acid solutions in example 3 were added to the nursery soil in the joint pot, and that heights of young plants in each group were measured on the 24th day, the dwarfing effect of cinnamic acid aqueous solution on field peas young plants was examined. […]
# eggplant young plants = assay: Dwarfing test of eggplant young plant; conditions: for Plant Height / Dwarfing Rate: 5 ml per cell on 7th day, measured 25th day; for Dwarfing Rate: vs comparative group
# Experimental: After seeding, the pot was placed in the same greenhouse as described above to sprout. Subsequently, on the 5th day, the cinnamic aqueous acid solutions were added to the nursery soil in the joint pots. One of the joint pots (24 cells) was prepared as a 0.05% cinnamic acid aqueous solution addition group, and 5 ml of the 0.05% cinnamic acid aqueous solution was added to the nursery soil of each cell. Another one of the join pots was prepared as a 0.2% cinnamic acid aqueous solution addition group, and 5 ml of the 0.2% cinnamic acid aqueous solution was added to the nursery soil of each cell. […] Subsequently, the cultivation of carrot young plants in each group was continued under general conditions. On the 27th day, the heights of young plants in each group were measured, the dwarfing rate (%) was calculated, and the dwarfing effect of cinnamic acid aqueous solution on carrot young plants was examined. From the results in Table 5, it became evident that the 0.05% and 0.2% cinnamic acid aqueous solutions are effective in dwarfing carrot young plants. In the same way as in Example 5 except that seeds of cauliflower were sowed, the cinnamic acid solutions were added to the nursery soil in the joint pot on the 4th day, and that heights of young plants in each group were measured on the 20th day, the dwarfing effect of cinnamic acid aqueous solution on cauliflower young plants was examined. From the results in Table 12, it became evident that the cinnamic acid aqueous solutions are effective in dwarfing cauliflower young plants. In the same way as in Example 12 except that seeds of tomato were sowed, and that the cinnamic acid solutions were added to the nursery soil of the joint pot on the 7th day, the dwarfing effect of cinnamic acid aqueous solution on tomato young plants was examined. From the results in Table 17, it became evident that the cinnamic acid aqueous solutions are effective in dwarfing tomato young plants. In the same way as in Example 17 except that seeds of eggplant were sowed, and that plant heights were measured on the 25th day, the dwarfing effect of cinnamic acid aqueous solution on eggplant young plants was examined. From the results in Table 19, it became evident that the cinnamic acid aqueous solutions are effective in dwarfing eggplant young plants.
# [2] = system: prince melon young plants; assay: Dwarfing test of prince melon young plant; conditions: for Plant Height / Dwarfing Rate: 5 ml per cell on 7th day, measured 27th day; for Dwarfing Rate: vs comparative group
# Experimental: as §1, §2
# In the same way as in Example 12 except that seeds of tomato were sowed, and that the cinnamic acid solutions were added to the nursery soil of the joint pot on the 7th day, the dwarfing effect of cinnamic acid aqueous solution on tomato young plants was examined. […].
# In the same way as in Example 17 except that seeds of watermelon were sowed, and that plant heights were measured on the 27th day, the dwarfing effect of cinnamic acid aqueous solution on watermelon young plants was examined. […].
# In the same way as in Example 21 except that seeds of prince melon were sowed, the dwarfing effect of cinnamic acid aqueous solution on prince melon young plants was examined. […]
# [3] = 0.1% aqueous solution of Example 3, 5 ml per cell on 5th day
# [4] = 0.3% aqueous solution of Example 3, 5 ml per cell on 5th day
structure (smiles),measurement,setting,value
O=C(O)C=Cc1ccccc1 [cinnamic acid],Plant Height,onion young plants; 0.05% aqueous solution,8.0 cm
same,Dwarfing Rate,onion young plants; 0.05% aqueous solution,15.8%
same,Plant Height,onion young plants; 0.2% aqueous solution,7.5 cm
same,Dwarfing Rate,onion young plants; 0.2% aqueous solution,21.1%
same,dwarfing effect,"onion young plants; onion young plants, 0.05% and 0.2% aqueous solutions",effective
same,Plant Height,[1]; 0.05% aqueous solution,6.3 cm
same,Dwarfing Rate,[1]; 0.05% aqueous solution,7.4%
same,Plant Height,[1]; 0.2% aqueous solution,4.3 cm
same,Dwarfing Rate,[1]; 0.2% aqueous solution,36.8%
same,dwarfing effect,"[1]; qing-geng-cai young plants, 0.05% and 0.2% aqueous solutions",effective
same,Plant Height,field peas young plants; [3],24.3 cm
same,Dwarfing Rate,field peas young plants; [3],19.5%
same,Plant Height,field peas young plants; [4],18.1 cm
same,Dwarfing Rate,field peas young plants; [4],40.1%
same,dwarfing effect,"field peas young plants; field peas young plants, 0.1% and 0.3% aqueous solutions",effective
same,Plant Height,eggplant young plants; 0.05% aqueous solution,2.9 cm
same,Dwarfing Rate,eggplant young plants; 0.05% aqueous solution,12.1%
same,Plant Height,eggplant young plants; 0.2% aqueous solution,2.3 cm
same,Dwarfing Rate,eggplant young plants; 0.2% aqueous solution,30.3%
same,dwarfing effect,"eggplant young plants; eggplant young plants, 0.05% and 0.2% aqueous solutions",effective
same,Plant Height,[2]; 0.05% aqueous solution,5.3 cm
same,Dwarfing Rate,[2]; 0.05% aqueous solution,5.4%
same,Plant Height,[2]; 0.2% aqueous solution,4.1 cm
same,Dwarfing Rate,[2]; 0.2% aqueous solution,26.8%
same,dwarfing effect,"[2]; prince melon young plants, 0.05% and 0.2% aqueous solutions",effective
